Test systems include CCRF-CEM leukemia; DU-145 prostate; HCT-15 colon; HL-60(TB) leukemia; HOP-62 NSCLC; HT29 colon; M14 melanoma; MCF7 breast; MDA-MB-231 breast; NCI-H460 lung; SK-MEL-5 melanoma; SN12C renal; SNB-19 CNS; SW-620 colon; TK-10 renal; UACC-62 melanoma; MDA-MB-435; SK-MEL-2 melanoma.
What all share (test): NCI tumour cell line growth inhibition, 48 h

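How tested: cells in 96-well plates exposed to compound for 48 hours at five concentrations. TGI: concentration producing complete growth inhibition.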 Some results are limits rather than exact numbers.

These results are taken from PubChem BioAssay (NCI).

For `O=[N+]([O-])C(C(Cl)=C(Cl)Cl)=C(N1CCCCC1)N1CCCCC1`, the TGI with CCRF-CEM leukemia, in the experiment with DU-145 prostate, in the experiment on HCT-15 colon, in the experiment with HL-60(TB) leukemia, in the experiment with HOP-62 NSCLC and in the experiment on HT29 colon was more than 100 µM in each case. In addition, the TGI with M14 melanoma, in the experiment on MCF7 breast, in the experiment with MDA-MB-231 breast, in the experiment on NCI-H460 lung, with SK-MEL-5 melanoma and in the experiment on SN12C renal was more than 100 µM throughout. Also, the TGI in the experiment on SNB-19 CNS, with SW-620 colon, in the experiment with TK-10 renal and with UACC-62 melanoma was more than 100 µM each time.
For the molecule `COc1nc(=O)[nH]c2c1C(c1ccc([N+](=O)[O-])cc1)c1c(OC)nc(=O)[nH]c1O2`, the TGI in the experiment with CCRF-CEM leukemia, in the experiment with DU-145 prostate, in the experiment on HCT-15 colon, in the experiment on HL-60(TB) leukemia, with HOP-62 NSCLC and with HT29 colon was more than 100 µM throughout. The TGI in the experiment with M14 melanoma, with MDA-MB-231 breast, in the experiment with MDA-MB-435, in the experiment on NCI-H460 lung, with SK-MEL-2 melanoma and with SK-MEL-5 melanoma was more than 100 µM throughout. The TGI in the experiment on SN12C renal, in the experiment with SNB-19 CNS, with SW-620 colon, in the experiment with TK-10 renal and in the experiment with UACC-62 melanoma was more than 100 µM throughout.
As to `N#CCCC1(CCC#N)S(=O)(=O)OCCOS1(=O)=O`, the TGI was more than 100 µM in the experiment with CCRF-CEM leukemia; more than 100 µM in the experiment on DU-145 prostate; more than 100 µM in the experiment on HCT-15 colon; 69.4 µM with HL-60(TB) leukemia; more than 100 µM in the experiment on HOP-62 NSCLC; more than 100 µM in the experiment on HT29 colon. Besides, the TGI with M14 melanoma, with MCF7 breast, in the experiment with MDA-MB-435, in the experiment on SK-MEL-2 melanoma, in the experiment with SK-MEL-5 melanoma and in the experiment on SN12C renal was more than 100 µM throughout. Moreover, the TGI in the experiment with SNB-19 CNS, with SW-620 colon, in the experiment with TK-10 renal and in the experiment with UACC-62 melanoma was more than 100 µM each time.
Turning to `Cc1cn(C2CC(O)C(Cn3nncc3Cn3cnc4c(N)ncnc43)O2)c(=O)[nH]c1=O` (centres undefined), the TGI with CCRF-CEM leukemia, with DU-145 prostate, in the experiment with HCT-15 colon, in the experiment on HL-60(TB) leukemia, in the experiment with HOP-62 NSCLC and in the experiment with M14 melanoma was more than 100 µM throughout. Further, the TGI with MCF7 breast, with MDA-MB-435, in the experiment on SK-MEL-2 melanoma, in the experiment on SK-MEL-5 melanoma, in the experiment on SN12C renal and in the experiment with SNB-19 CNS was more than 100 µM each time. Also, the TGI in the experiment with SW-620 colon, with TK-10 renal and in the experiment with UACC-62 melanoma was more than 100 µM each time.
For `COc1cc(-c2nc(N)c(C#N)c3c2CCS(=O)(=O)c2ccc(C)cc2-3)cc(OC)c1OC`, the TGI in the experiment on CCRF-CEM leukemia, in the experiment with DU-145 prostate, with HCT-15 colon, with HL-60(TB) leukemia, in the experiment on HOP-62 NSCLC and in the experiment on HT29 colon was more than 100 µM each time. In addition, the TGI in the experiment with M14 melanoma was more than 100 µM; with MDA-MB-231 breast, 56.3 µM; with MDA-MB-435 it was more than 100 µM; in the experiment with NCI-H460 lung, more than 100 µM; in the experiment on SK-MEL-2 melanoma, more than 100 µM; with SK-MEL-5 melanoma it was more than 100 µM. The TGI was more than 100 µM in the experiment on SN12C renal; 29.5 µM in the experiment with SNB-19 CNS; more than 100 µM with SW-620 colon; 70 µM in the experiment on TK-10 renal; more than 100 µM in the experiment with UACC-62 melanoma.
Regarding `O=c1[nH]c(=O)n([C@H]2C[C@@H](CO)[C@@H](O)C2)cc1I`, the TGI in the experiment with CCRF-CEM leukemia, with HCT-15 colon, in the experiment on HL-60(TB) leukemia, in the experiment with HOP-62 NSCLC, with HT29 colon and in the experiment with M14 melanoma was more than 100 µM each time. The TGI in the experiment with NCI-H460 lung, with SK-MEL-2 melanoma, in the experiment with SK-MEL-5 melanoma, with SN12C renal, with SNB-19 CNS and in the experiment on SW-620 colon was more than 100 µM in each case. Further, the TGI with TK-10 renal and in the experiment with UACC-62 melanoma was more than 100 µM in each case.
As to `COc1ccc2nc3ccc(OC)cc3c(S(=O)Cc3ccccc3)c2c1` (centres undefined), the TGI was more than 22.1 µM in the experiment on CCRF-CEM leukemia; 5.85 µM in the experiment on DU-145 prostate; more than 48.9 µM with HCT-15 colon; 35.9 µM with HL-60(TB) leukemia; 33.4 µM with HOP-62 NSCLC; 10.6 µM with HT29 colon. In addition, the TGI with M14 melanoma was 30.1 µM; in the experiment on MDA-MB-231 breast, 30.8 µM; with MDA-MB-435, 27.8 µM; in the experiment on NCI-H460 lung, more than 74.5 µM; in the experiment on SK-MEL-2 melanoma, 33 µM; in the experiment on SK-MEL-5 melanoma, 30.5 µM. Further, the TGI with SN12C renal is 21.3 µM; with SNB-19 CNS, 41.5 µM; with SW-620 colon, more than 32.1 µM; in the experiment on TK-10 renal, 19.4 µM; in the experiment on UACC-62 melanoma it was 28.5 µM.
On to `Nc1c(F)c(F)c2c(c1F)N(CCCCCl)c1ccccc1S2`, for which the TGI in the experiment with CCRF-CEM leukemia, in the experiment on DU-145 prostate, with HCT-15 colon, in the experiment with HL-60(TB) leukemia, in the experiment on HOP-62 NSCLC and with HT29 colon was more than 100 µM throughout. In addition, the TGI in the experiment with M14 melanoma, in the experiment on MCF7 breast, in the experiment with MDA-MB-231 breast, with NCI-H460 lung, in the experiment on SK-MEL-2 melanoma and in the experiment on SK-MEL-5 melanoma was more than 100 µM in each case. Besides, the TGI in the experiment with SN12C renal, with SNB-19 CNS, with SW-620 colon, with TK-10 renal and with UACC-62 melanoma was more than 100 µM in each case.
